# Several values for one entry are separate records, joined by “and”; a condition that tells them apart may be missing. Equal values may be shown once.
# Tests used:
# [1] = test system: nitrite production in BV-2 cells; experiment: LPS-induced nitrite (nitric oxide) production in BV-2 cells, Griess reagent; type: cell-based, murine; conditions: 100 ng/ml LPS, 1-50 μg/ml, 18 hours
# Description: Nitrite levels in the culture media were determined using Griess reagent under manufacturer's instructions (Sigma Aldrich, St. Louis, Mo.). Fresh culture media were used as blanks and the nitrite levels were determined by using a standard sodium nitrite curve.
# The effect of each extract on nitric oxide production is evaluated according to the procedures illustrated as follows. Briefly, murine microglia cell line BV-2 is maintained in Dulbecco's modified Eagle's minimum essential medium (DMEM) supplemented with 10% FBS and 1% penicillin and streptomycin (Invitrogen Life Technologies, Carlsbad, Calif.) at 37° C. in a humidified atmosphere with 5% CO2 in warm air.
# 0.1 M cells/ml BV-2 cells are seeded in 24-well plates (0.5 ml in each well). Cells are treated with 0.05% DMSO; 0.05% DMSO and 100 ng/ml LPS; or 100 ng/ml LPS and 50 μg/ml of an LCX extract for 18 hours, respectively. The culture supernatant is collected. The nitric oxide level is measured using the Griess reagent according to standard manufacturer's instructions (Sigma Aldrich, St. Louis, Mo.), and assessed using the standard sodium nitrite curve.
# The effect of senkyunolide A (Sen A) and Z-ligustilide (Z-Lig) at various concentrations on LPS-induced nitrite production is further evaluated in this Example. Briefly, 0.1 M cells/ml BV-2 cells are seeded in 24-well plates (0.5 ml in each well). Cells are treated with 0.05% DMSO; 0.05% DMSO and 100 ng/ml LPS; 50 μg/ml Sen A/Z-Lig; or 100 ng/ml LPS and Sen A/Z-Lig at a concentration of 1 μg/ml, 5 μg/ml, 10 μg/ml, 25 μg/ml, and 50 μg/ml for 18 hours, respectively. The culture supernatant is collected. The nitric oxide level is measured using the Griess reagent according to standard manufacturer's instructions (Sigma Aldrich, St. Louis, Mo.), and evaluated using the standard sodium nitrite curve.
# [2] = test system: TNF-α production in human blood macrophages; experiment: LPS-induced TNF-α production in human blood macrophages (PBMac), ELISA; type: cell-based; conditions: 25 or 50 μg/ml for 24 hours, then 1 ng/ml LPS for 24 hours
# Description: To measure the TNF-α level in cell culture supernatants, BV-2 cells were seeded at 1×10^5 cells/ml in the volume of 0.5 ml in 24-well culture plates. They were co-treated with or without 100 ng/ml LPS in the absence or presence of indicated concentrations of bioactive compounds of LCX for 18 h. In addition, PBMac cells were seeded at 1×10^6 cells/ml in the volume of 0.5 ml in 24-well plates. After incubation, the supernatants were collected and TNF-α levels were determined by ELISA according to the manufacturer's instructions (R&D Systems). […] To study the effect of Sen A and Z-Lig at various concentrations on TNF-α production, 1×10^6 cells/ml (FIG. 6) PBMac cells are seeded in 24-well plates (0.5 ml in each well). Cells are treated with 25 μg/ml or 50 μg/ml Sen A, Z-Lig, or DMSO for 24 hours prior to the addition of 1 ng/ml LPS, and further incubated for another 24 hours. The culture supernatants are collected and the level of secreted TNF-α is measured by ELISA according to the manufacturer's instructions (R&D Systems, Minneapolis, Minn.).
# [3] = test system: TNF-α protein production in BV-2 cells; experiment: LPS-induced TNF-α protein production in BV-2 cells, ELISA; type: cell-based, murine; conditions: 100 ng/ml LPS, 18 hours
# Description: To measure the TNF-α level in cell culture supernatants, BV-2 cells were seeded at 1×10^5 cells/ml in the volume of 0.5 ml in 24-well culture plates. They were co-treated with or without 100 ng/ml LPS in the absence or presence of indicated concentrations of bioactive compounds of LCX for 18 h. In addition, PBMac cells were seeded at 1×10^6 cells/ml in the volume of 0.5 ml in 24-well plates. After incubation, the supernatants were collected and TNF-α levels were determined by ELISA according to the manufacturer's instructions (R&D Systems).
# The role of senkyunolide A (Sen A) and Z-ligustilide (Z-Lig) in suppressing TNF-α production is further evaluated in this Example. Briefly, 5×10^4 cells/ml BV-2 cells are seeded in 24-well plates (0.5 ml in each well). Cells are treated with 0.05% DMSO; 0.05% DMSO and 100 ng/ml LPS; 50 μg/ml Sen A/Z-Lig; or 100 ng/ml LPS and Sen A/Z-Lig at a concentration of 1 μg/ml, 5 μg/ml, 10 μg/ml, 25 μg/ml, and 50 μg/ml for 18 hours, respectively. The culture supernatant is collected and the level of secreted TNF-α is measured by ELISA.
# Neuro-2a cells [4] = experiment: Conditioned culture medium transfer model (LPS-treated BV-2 supernatant on Neuro-2a), MTT assay; type: cell-based, murine; conditions: supernatant of BV-2 cells treated with 100 ng/ml LPS and 50 μg/ml compound 18 h, on Neuro-2a 48 h; LPS only more than 40%
# Description: BV-2 cells (3×10^5 cells/ml) were first treated with 100 ng/ml LPS for 18 h, in the presence of either 0.05% DMSO or 50 μg/ml senkyunolide A or Z-ligustilide. After centrifugation, the supernatants from BV-2 cells were transferred to Neuro-2a cells ([…]) for 48 h. Viability of Neuro-2a cells was measured using MTT assays. Results are shown as mean SD from three independent experiments. *p<0.05 compared with DMSO+LPS.
# BV-2 cells were seeded at 3×10^5 cells/ml in 12-well culture plates (1 ml in each well). They were co-treated with or without 100 ng/ml LPS, in the presence of 0.05% DMSO, 50 μg/ml senkyunolide A, or 50 μg/ml Z-ligustilide, for 18 h. The supernatants were then collected and centrifuged at 13,200 rpm for 3 min. The resulting supernatants were then transferred to Neuro-2a cells (1×10^5 cells/ml in 24-well culture plates), which were incubated for another 48 h. Cell viability of Neuro-2a cells was measured by MTT assay.
# Briefly, to investigate the physiological significance of Sen A and Z-Lig, a conditioned culture medium transfer model, commonly used for studying neuronal cell death induced by microglial activation, was adopted. After BV-2 cells were challenged with LPS, the supernatants were collected and centrifuged. The conditioned culture media were then transferred to Neuro-2a cell cultures.
# Neuro-2a cells [5] = experiment: Neuro-2a cells treated with compound alone in the culture media; type: cell-based, murine; conditions: compound alone in the culture media (data not shown)
# Text: Specifically, a significant reduction in cell death, to less than 15% and 25%, respectively, was observed.
structure (smiles),measurement,setting,value
CCC/C=C1\OC(=O)C2=C1CCC=C2 [Z-ligustilide],effect on nitrite production over concentrations,[1],inhibits nitrite production in a dose-dependent manner
same,effect on endotoxin-induced TNF-α production,[2],suppress endotoxin-induced TNF-α production in a dose-dependent manner
same,effect on TNF-α production over concentrations,[3]; 1-50 μg/ml,inhibits TNF-α production in a dose-dependent manner
same,concentration that significantly inhibits TNF-α production,[3],10 µg/mL and > 10 µg/mL
same,cell death of Neuro-2a cells,Neuro-2a cells [4],< 25%
same,cell death with compound alone,Neuro-2a cells [5],did not show cell death
